These results are taken from patent publication US9481635B2, “Process for preparing gabapentin” (ZACH SYSTEM S.P.A., priority 2013, dated 2016).

Series [1] is described as follows: Solubility of gabapentin in anhydrous extraction solvents. In kind it is physicochemical. An excerpt: Thus, the solution of gabapentin in cresol after extraction may be anhydrified, for example, by distillation so as to crystallize the undesired residual salts leaving the gabapentin itself in solution. Said solution of gabapentin in cresol obtained from the removal of the salts by filtration and/or by contro-extraction with water has a chloride content of a few tens of ppm.
The same technique cannot be applied to the corresponding solution in n-butanol of the prior art, since the solubility of gabapentin in the anhydrous solvent is very low; as a result the butanolic solution of gabapentin extraction from the Hofmann end solution, when subjected to anhydrification reaction, leads to the co-precipitation of gabapentin and of these same salts, thus, with no advantage from the point of view of product purity.

For series [2] the following is noted: as stated for U.S. Pat. No. 6,518,456; cited from earlier work.

Entries after “also recorded” stand apart in the source; their conditions may differ.

Regarding `NCC1(CC(=O)O)CCCCC1` [gabapentin, 1-(aminomethyl)-cyclohexaneacetic acid], the solubility entry in series [1] (in anhydrous cresol) was “about 20%”; in series [1] (in anhydrous n-butanol), “virtually zero; also recorded: very low”. The “isoelectric point (pH)” value in series [2] was 7.2 pH.
